The target of assay [1] is Sodium-dependent noradrenaline transporter (Homo sapiens, UniProt P23975).
Assay [2] deals with Prostaglandin G/H synthase 1 (Homo sapiens, UniProt P23219). The assay is classed as functional.
For assay [3], the target named is T1, Muscarinic acetylcholine receptor M2 (Homo sapiens, UniProt P08172).
T1 sequence (P08172 whole entry): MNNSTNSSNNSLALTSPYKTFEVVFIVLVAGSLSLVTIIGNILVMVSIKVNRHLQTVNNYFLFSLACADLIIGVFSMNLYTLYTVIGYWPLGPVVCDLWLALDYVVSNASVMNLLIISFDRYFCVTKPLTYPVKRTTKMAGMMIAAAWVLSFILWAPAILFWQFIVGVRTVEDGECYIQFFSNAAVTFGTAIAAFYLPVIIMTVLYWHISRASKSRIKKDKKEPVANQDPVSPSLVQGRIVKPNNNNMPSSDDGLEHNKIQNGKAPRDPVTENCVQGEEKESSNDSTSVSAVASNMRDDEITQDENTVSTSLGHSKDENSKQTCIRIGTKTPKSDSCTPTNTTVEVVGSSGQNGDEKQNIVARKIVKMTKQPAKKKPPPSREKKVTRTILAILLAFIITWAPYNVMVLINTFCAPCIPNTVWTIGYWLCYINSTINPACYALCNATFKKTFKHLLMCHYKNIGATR

Assay [4] concerns the target Prothrombin (Homo sapiens, UniProt P00734). The assay is classed as functional.
The target of assay [5] is T2, Estrogen receptor (Homo sapiens, UniProt P03372).
T2 sequence (P03372 whole entry): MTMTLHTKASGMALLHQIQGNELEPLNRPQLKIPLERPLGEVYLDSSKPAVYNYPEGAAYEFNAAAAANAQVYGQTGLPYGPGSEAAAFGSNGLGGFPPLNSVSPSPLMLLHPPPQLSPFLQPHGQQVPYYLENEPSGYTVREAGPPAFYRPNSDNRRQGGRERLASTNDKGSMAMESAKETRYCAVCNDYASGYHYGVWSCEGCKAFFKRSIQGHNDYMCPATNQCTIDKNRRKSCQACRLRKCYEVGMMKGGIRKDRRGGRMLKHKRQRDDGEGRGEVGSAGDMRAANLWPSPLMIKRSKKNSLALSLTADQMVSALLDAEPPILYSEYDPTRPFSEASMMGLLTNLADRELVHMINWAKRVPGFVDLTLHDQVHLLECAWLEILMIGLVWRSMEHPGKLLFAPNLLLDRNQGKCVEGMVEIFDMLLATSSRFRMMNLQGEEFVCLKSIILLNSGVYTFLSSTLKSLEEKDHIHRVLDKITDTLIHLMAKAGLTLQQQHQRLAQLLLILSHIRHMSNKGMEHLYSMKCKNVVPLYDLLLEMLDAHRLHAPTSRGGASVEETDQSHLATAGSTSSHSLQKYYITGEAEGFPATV

Assay [6] addresses 5-hydroxytryptamine receptor 2B (Homo sapiens, UniProt P41595). The format is functional, cell-based.
The target in assay [7] is T3, Thromboxane A2 receptor (Homo sapiens, UniProt P21731).
T3 sequence (P21731 whole entry): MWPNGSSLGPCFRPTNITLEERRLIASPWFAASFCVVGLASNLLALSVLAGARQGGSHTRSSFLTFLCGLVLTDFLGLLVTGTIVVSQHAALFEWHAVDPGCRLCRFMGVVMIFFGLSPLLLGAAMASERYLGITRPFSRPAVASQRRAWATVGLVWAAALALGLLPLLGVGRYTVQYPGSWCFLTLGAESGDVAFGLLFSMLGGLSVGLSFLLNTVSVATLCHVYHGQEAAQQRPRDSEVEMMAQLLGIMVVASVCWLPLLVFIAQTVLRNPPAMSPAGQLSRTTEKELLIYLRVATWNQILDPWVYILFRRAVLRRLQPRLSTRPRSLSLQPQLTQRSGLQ
The format is functional, cell-based.

This passage reports AC50 results from ChEMBL document CHEMBL5291721, “A preclinical secondary pharmacology resource illuminates target-adverse drug reaction associations of marketed drugs” (Nat Commun, 2023).
Also: assay procedure not described here.

Chain of Sodium-dependent noradrenaline transporter (P23975 whole entry): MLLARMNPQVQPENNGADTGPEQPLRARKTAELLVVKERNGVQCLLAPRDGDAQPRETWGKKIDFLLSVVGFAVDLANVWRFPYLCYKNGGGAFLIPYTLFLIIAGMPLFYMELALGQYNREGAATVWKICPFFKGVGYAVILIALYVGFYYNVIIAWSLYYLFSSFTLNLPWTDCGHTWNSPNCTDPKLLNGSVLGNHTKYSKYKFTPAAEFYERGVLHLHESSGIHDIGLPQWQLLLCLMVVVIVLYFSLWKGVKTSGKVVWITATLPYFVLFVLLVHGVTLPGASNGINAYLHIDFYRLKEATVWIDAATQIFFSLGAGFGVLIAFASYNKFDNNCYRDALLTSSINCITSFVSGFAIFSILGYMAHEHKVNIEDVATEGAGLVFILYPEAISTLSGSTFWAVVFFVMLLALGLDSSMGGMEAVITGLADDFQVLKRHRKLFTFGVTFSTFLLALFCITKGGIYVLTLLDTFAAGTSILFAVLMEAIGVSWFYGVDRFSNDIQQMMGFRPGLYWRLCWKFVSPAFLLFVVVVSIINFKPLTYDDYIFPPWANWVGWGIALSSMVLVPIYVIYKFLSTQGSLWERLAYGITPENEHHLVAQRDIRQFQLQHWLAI
Chain of Prostaglandin G/H synthase 1 (P23219 whole entry): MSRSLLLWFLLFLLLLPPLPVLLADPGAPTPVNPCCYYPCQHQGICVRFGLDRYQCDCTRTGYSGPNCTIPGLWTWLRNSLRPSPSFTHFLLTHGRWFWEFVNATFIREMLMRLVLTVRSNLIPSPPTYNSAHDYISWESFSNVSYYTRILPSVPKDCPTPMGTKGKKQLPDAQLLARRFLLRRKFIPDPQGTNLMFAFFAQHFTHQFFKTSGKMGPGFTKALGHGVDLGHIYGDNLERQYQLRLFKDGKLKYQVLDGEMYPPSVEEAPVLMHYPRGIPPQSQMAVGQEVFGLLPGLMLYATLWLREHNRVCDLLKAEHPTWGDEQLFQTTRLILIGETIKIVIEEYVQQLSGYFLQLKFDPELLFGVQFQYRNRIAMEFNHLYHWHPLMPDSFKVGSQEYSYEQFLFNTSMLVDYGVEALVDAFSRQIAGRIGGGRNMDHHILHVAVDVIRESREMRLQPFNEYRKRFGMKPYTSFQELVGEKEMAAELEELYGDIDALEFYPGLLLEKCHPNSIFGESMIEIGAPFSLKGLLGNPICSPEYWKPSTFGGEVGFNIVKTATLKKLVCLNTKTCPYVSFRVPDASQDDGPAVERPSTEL
Chain of 5-hydroxytryptamine receptor 2B (P41595 whole entry): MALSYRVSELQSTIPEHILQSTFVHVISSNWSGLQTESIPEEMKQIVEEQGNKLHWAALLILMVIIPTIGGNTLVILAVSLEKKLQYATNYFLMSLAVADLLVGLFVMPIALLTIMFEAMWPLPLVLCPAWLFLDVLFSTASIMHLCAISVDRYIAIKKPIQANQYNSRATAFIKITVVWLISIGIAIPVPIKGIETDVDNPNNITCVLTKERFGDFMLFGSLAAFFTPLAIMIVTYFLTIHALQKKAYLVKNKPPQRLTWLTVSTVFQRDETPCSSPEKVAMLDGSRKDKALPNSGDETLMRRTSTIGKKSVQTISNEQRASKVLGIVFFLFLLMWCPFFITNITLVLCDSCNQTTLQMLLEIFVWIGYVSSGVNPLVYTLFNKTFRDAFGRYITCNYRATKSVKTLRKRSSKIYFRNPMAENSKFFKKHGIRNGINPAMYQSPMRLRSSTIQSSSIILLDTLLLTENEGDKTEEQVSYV

For orientation: AC50 means the concentration giving half of the maximal activity seen. In the case of `Cc1c(-c2ccccc2)oc2c(C(=O)OCCN3CCCCC3)cccc2c1=O` [FLAVOXATE], the AC50 was 11.3 µM in assay [1]; more than 30 µM in assay [2]; 3.39 µM in assay [3]; more than 30 µM in assay [4]; more than 30 µM in assay [5]; more than 30 µM in assay [6]. This molecule yielded an AC50 in assay [7] of more than 30 µM.
Regarding `C(=N\NC1=NCCN1)/c1c2ccccc2c(/C=N/NC2=NCCN2)c2ccccc12` [BISANTRENE], the AC50 in assay [1] was 7.13 µM; in assay [2] it was more than 30 µM; in assay [3] it was 2.74 µM; in assay [4] it was more than 30 µM; in assay [5], more than 30 µM; in assay [6], more than 30 µM. This molecule also gave an AC50 in assay [7] of more than 30 µM.
Turning to `CN1CCCC(CN2c3ccccc3Sc3ccccc32)C1` (stereo not given) [MEPAZINE], the AC50 was 2.38 µM in assay [1]; more than 30 µM in assay [2]; 0.347 µM in assay [3]; more than 30 µM in assay [4]; more than 30 µM in assay [5]; more than 30 µM in assay [6]. The molecule also returned an AC50 in assay [7] of more than 10 µM.
For the molecule `OC[C@@H](O)[C@@H](O)[C@H](O)[C@H](O)CO` [MANNITOL], the AC50 in assay [1], in assay [2], in assay [3], in assay [4], in assay [5] and in assay [6] was more than 30 µM each time. Further, in assay [7], the AC50 is more than 30 µM.
Regarding `CCOC(=O)N[C@@H]1CC[C@@H]2[C@@H](C1)C[C@H]1C(=O)O[C@H](C)[C@H]1[C@H]2/C=C/c1ccc(-c2cccc(F)c2)cn1` [VORAPAXAR], the AC50 in assay [1] was 4.56 µM; in assay [2], more than 30 µM; in assay [3], more than 30 µM; in assay [4], more than 30 µM; in assay [5] it was more than 30 µM; in assay [6] it was more than 30 µM. This molecule also yielded an AC50 in assay [7] of more than 10 µM.
Regarding `CC1(C)O[C@@H]2C[C@H]3[C@@H]4C[C@H](F)C5=CC(=O)CC[C@]5(C)[C@H]4[C@@H](O)C[C@]3(C)[C@]2(C(=O)CO)O1` [FLURANDRENOLIDE], the AC50 in assay [1], in assay [2], in assay [3], in assay [4], in assay [5] and in assay [6] was more than 30 µM in each case. Besides, the half-maximal activity concentration (AC50) in assay [7] is more than 30 µM.
Turning to `CC(=O)OC[C@H]1O[C@@H](n2ccc(=O)[nH]c2=O)[C@H](OC(C)=O)[C@@H]1OC(C)=O` [URIDINE TRIACETATE], the AC50 in assay [1], in assay [2], in assay [3], in assay [4], in assay [5] and in assay [6] was more than 30 µM each time. The molecule further registered an AC50 in assay [7] of more than 30 µM.
With `O=C1[C@H](CC[C@H](O)c2ccc(F)cc2)[C@@H](c2ccc(O)cc2)N1c1ccc(F)cc1` [EZETIMIBE], the AC50 is 24 µM in assay [1]; 6.72 µM in assay [2]; more than 30 µM in assay [3]; more than 30 µM in assay [4]; more than 30 µM in assay [5]; more than 30 µM in assay [6]. In assay [7], this molecule registered an AC50 of 7.68 µM.
As for `C[N+](C)(C)CCCCCCCCCC[N+](C)(C)C` [DECAMETHONIUM], the AC50 in assay [1], in assay [2], in assay [3], in assay [4], in assay [5] and in assay [6] was more than 30 µM in each case. In addition, the half-maximal activity concentration (AC50) in assay [7] was more than 30 µM.
On to `CCC(=O)O[C@H]1[C@H](O[C@@H]2[C@@H](C)[C@H](O[C@H]3C[C@@](C)(OC)[C@@H](O)[C@H](C)O3)[C@@H](C)C(=O)O[C@H](CC)[C@@](C)(O)[C@H](O)[C@@H](C)C(=O)[C@H](C)C[C@@]2(C)O)O[C@H](C)C[C@@H]1N(C)C` [ERYTHROMYCIN PROPIONATE], for which the AC50 was 29.9 µM in assay [1]; more than 10 µM in assay [2]; more than 30 µM in assay [3]; more than 30 µM in assay [4]; more than 30 µM in assay [5]; more than 30 µM in assay [6]. Moreover, the AC50 in assay [7] was more than 3 µM.
